Source: US9132140B2, “Boronic acid derivatives and therapeutic uses thereof” (Rempex Pharmaceuticals, Inc., priority 2013, dated 2015)

How the values were obtained:
[1] = molecular target: CTX-M-14 (Escherichia coli, UniProt Q9L5C7); experiment: Inhibition of purified beta-lactamase, nitrocefin cleavage; assay type: biochemical
Experimental: (§1) Purified enzymes were mixed with various concentrations of inhibitors in reaction buffer and incubated for 10 min at room temperature. Nitrocefin was added and substrate cleavage profiles were recorded at 490 nm every 10 sec for 10 min.

[2] = molecular target: OXA-48 (Klebsiella pneumoniae, UniProt Q6XEC0); experiment: as above; assay type: biochemical; settings: read-out: Ki (OXA-48, NCF)
OXA-48, sequence (Q6XEC0 23-265, looked up): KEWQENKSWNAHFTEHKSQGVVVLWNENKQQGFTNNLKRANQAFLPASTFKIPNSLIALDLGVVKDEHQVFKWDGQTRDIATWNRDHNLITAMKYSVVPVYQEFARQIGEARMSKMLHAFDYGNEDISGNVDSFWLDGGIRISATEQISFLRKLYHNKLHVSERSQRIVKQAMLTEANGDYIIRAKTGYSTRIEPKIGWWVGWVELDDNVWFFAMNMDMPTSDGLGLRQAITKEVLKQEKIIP
Experimental: as §1

[3] = molecular target: SHV-12 (Klebsiella pneumoniae, UniProt P0AD64, E235K/G234S/L31Q); experiment: as above; assay type: biochemical; settings: read-out: Ki (SHV-12, NCF)
SHV-12, sequence (P0AD64 22-286 L31Q/G234S/E235K): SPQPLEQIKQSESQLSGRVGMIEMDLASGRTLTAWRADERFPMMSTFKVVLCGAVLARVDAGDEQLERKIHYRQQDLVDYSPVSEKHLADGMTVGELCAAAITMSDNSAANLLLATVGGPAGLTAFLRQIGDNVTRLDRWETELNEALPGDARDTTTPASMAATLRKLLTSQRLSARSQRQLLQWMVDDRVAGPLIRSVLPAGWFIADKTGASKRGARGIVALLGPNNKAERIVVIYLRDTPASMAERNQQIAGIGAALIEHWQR
Experimental: as §1

[4] = molecular target: P99/AmpC of ECL (Enterobacter cloacae, UniProt P05364); experiment: biochemical; settings: nitrocefin; read-out: Ki (P99/AmpC of ECL, NCF)
P99/AmpC of ECL, sequence (P05364 21-381): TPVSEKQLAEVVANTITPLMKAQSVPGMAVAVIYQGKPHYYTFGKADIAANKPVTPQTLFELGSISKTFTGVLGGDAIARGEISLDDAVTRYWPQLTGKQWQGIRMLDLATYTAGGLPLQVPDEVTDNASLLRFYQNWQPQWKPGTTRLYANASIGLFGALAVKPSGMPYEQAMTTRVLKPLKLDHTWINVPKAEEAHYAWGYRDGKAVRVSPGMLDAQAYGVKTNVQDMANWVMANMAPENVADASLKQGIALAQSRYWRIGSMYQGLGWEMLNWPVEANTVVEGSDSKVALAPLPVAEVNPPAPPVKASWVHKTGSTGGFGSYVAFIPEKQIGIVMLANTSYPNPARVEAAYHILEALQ
Experimental: as §1

[5] = tested on: EA1019 (SHV-5, VIM-1); assay type: cell-based, Enterobacter aerogenes
Source text: (§2) Several strains simultaneously expressing both class A and class B carbapenemases, which were constructed using conjugation, were also included in the panel.

[6] = tested on: KP1054 (VIM-1, SHV-11); assay type: cell-based, Klebsiella pneumoniae
Source text: as §2

[7] = tested on: KP1064 (KPC TEM SHV); assay type: cell-based, Klebsiella pneumoniae
Source text: as §2

[8] = tested on: KP1070 (KPC TEM SHV); assay type: cell-based, Klebsiella pneumoniae
Source text: as §2

[9] = tested on: KP1097 (IMP-1 SHV); assay type: cell-based, Klebsiella pneumoniae
Source text: as §2

[10] = tested on: KPM1097 (NDM, KPC); assay type: cell-based, Klebsiella pneumoniae
Source text: as §2

[11] = tested on: KPM1110 (NDM, KPC); assay type: cell-based, Klebsiella pneumoniae
Source text: as §2

[12] = tested on: EC1061 (NDM-1, CMY-6); assay type: cell-based, Escherichia coli
Source text: as §2

[13] = tested on: EC1064 (NDM-1, CMY-6, CTX-M-15); assay type: cell-based, Escherichia coli
Source text: as §2

[14] = tested on: EC1065 (IMP-1 CMY-2); assay type: cell-based, Escherichia coli
Source text: as §2

[15] = tested on: EC1068 (VIM-1); assay type: cell-based, Escherichia coli
Source text: as §2

[16] = tested on: strains of Enterobacteriaceae producing various carbapenemases; experiment: Meropenem/imipenem potentiation MIC, whole panel; assay type: cell-based; settings: strains expressing various carbapenemases, incl. class A and class B simultaneously; compound fixed 4 vg/ml
Source text: Several strains simultaneously expressing both class A and class B carbapenemases, which were constructed using conjugation, were also included in the panel. […]

CTX-M-14, sequence (Q9L5C7 entry or part of it): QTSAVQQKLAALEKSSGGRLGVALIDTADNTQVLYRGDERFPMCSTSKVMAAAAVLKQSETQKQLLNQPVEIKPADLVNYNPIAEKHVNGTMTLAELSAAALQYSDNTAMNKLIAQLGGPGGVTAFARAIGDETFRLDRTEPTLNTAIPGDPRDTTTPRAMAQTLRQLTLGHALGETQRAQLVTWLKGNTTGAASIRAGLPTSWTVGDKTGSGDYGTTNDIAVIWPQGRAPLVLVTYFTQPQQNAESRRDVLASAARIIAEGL

Nn1cnnc1S[C@H]1Cc2cccc(C(=O)O)c2OB1O [Compound 14, (R)-3-(4-amino-4H-1,2,4-triazol-3-ylthio)-2-hydroxy-3,4-dihydro-2H-benzo[e][1,2]oxaborinine-8-carboxylic acid]
Ki [1]: < 100 nM | Ki [2]: < 100 nM | Ki [3]: < 100 nM | Ki [4]: < 100 nM | Imipenem + 14 MIC [5]: Y (key: X: MIC of less than 1 μg/mL; Y: MIC of 1 μg/mL to 10 μg/mL; Z: MIC of greater than 10 μg/mL) | Meropenem + 14 MIC [5]: X (key: X: MIC of less than 1 μg/mL; Y: MIC of 1 μg/mL to 10 μg/mL; Z: MIC of greater than 10 μg/mL) | Imipenem + 14 MIC [6]: X (key: X: MIC of less than 1 μg/mL; Y: MIC of 1 μg/mL to 10 μg/mL; Z: MIC of greater than 10 μg/mL) | Meropenem + 14 MIC [6]: X (key: X: MIC of less than 1 μg/mL; Y: MIC of 1 μg/mL to 10 μg/mL; Z: MIC of greater than 10 μg/mL) | Imipenem + 14 MIC [7]: X (key: X: MIC of less than 1 μg/mL; Y: MIC of 1 μg/mL to 10 μg/mL; Z: MIC of greater than 10 μg/mL) | Meropenem + 14 MIC [7]: Y (key: X: MIC of less than 1 μg/mL; Y: MIC of 1 μg/mL to 10 μg/mL; Z: MIC of greater than 10 μg/mL) | Imipenem + 14 MIC [8]: X (key: X: MIC of less than 1 μg/mL; Y: MIC of 1 μg/mL to 10 μg/mL; Z: MIC of greater than 10 μg/mL) | Meropenem + 14 MIC [8]: X (key: X: MIC of less than 1 μg/mL; Y: MIC of 1 μg/mL to 10 μg/mL; Z: MIC of greater than 10 μg/mL) | Imipenem + 14 MIC [9]: X (key: X: MIC of less than 1 μg/mL; Y: MIC of 1 μg/mL to 10 μg/mL; Z: MIC of greater than 10 μg/mL) | Meropenem + 14 MIC [9]: Y (key: X: MIC of less than 1 μg/mL; Y: MIC of 1 μg/mL to 10 μg/mL; Z: MIC of greater than 10 μg/mL) | Imipenem + 14 MIC [10]: X (key: X: MIC of less than 1 μg/mL; Y: MIC of 1 μg/mL to 10 μg/mL; Z: MIC of greater than 10 μg/mL) | Meropenem + 14 MIC [10]: X (key: X: MIC of less than 1 μg/mL; Y: MIC of 1 μg/mL to 10 μg/mL; Z: MIC of greater than 10 μg/mL) | Imipenem + 14 MIC [11]: X (key: X: MIC of less than 1 μg/mL; Y: MIC of 1 μg/mL to 10 μg/mL; Z: MIC of greater than 10 μg/mL) | Meropenem + 14 MIC [11]: X (key: X: MIC of less than 1 μg/mL; Y: MIC of 1 μg/mL to 10 μg/mL; Z: MIC of greater than 10 μg/mL) | Imipenem + 14 MIC [12]: X (key: X: MIC of less than 1 μg/mL; Y: MIC of 1 μg/mL to 10 μg/mL; Z: MIC of greater than 10 μg/mL) | Meropenem + 14 MIC [12]: X (key: X: MIC of less than 1 μg/mL; Y: MIC of 1 μg/mL to 10 μg/mL; Z: MIC of greater than 10 μg/mL) | Imipenem + 14 MIC [13]: X (key: X: MIC of less than 1 μg/mL; Y: MIC of 1 μg/mL to 10 μg/mL; Z: MIC of greater than 10 μg/mL) | Meropenem + 14 MIC [13]: Y (key: X: MIC of less than 1 μg/mL; Y: MIC of 1 μg/mL to 10 μg/mL; Z: MIC of greater than 10 μg/mL) | Imipenem + 14 MIC [14]: X (key: X: MIC of less than 1 μg/mL; Y: MIC of 1 μg/mL to 10 μg/mL; Z: MIC of greater than 10 μg/mL) | Meropenem + 14 MIC [14]: X (key: X: MIC of less than 1 μg/mL; Y: MIC of 1 μg/mL to 10 μg/mL; Z: MIC of greater than 10 μg/mL) | Imipenem + 14 MIC [15]: X (key: X: MIC of less than 1 μg/mL; Y: MIC of 1 μg/mL to 10 μg/mL; Z: MIC of greater than 10 μg/mL) | Meropenem + 14 MIC [15]: X (key: X: MIC of less than 1 μg/mL; Y: MIC of 1 μg/mL to 10 μg/mL; Z: MIC of greater than 10 μg/mL) | carbapenem MIC in the presence of compound [16]: significantly reduced
